In one assay the test system is triglycerides in plasma. Description: plasma triglycerides in SHR rats. It is filed as in vivo. The following applies: 6 days, 400 mg/kg, p.o. The text has this:
Metabolic and cardiovascular pathologies are closely related. The overfeeding which characterises our society not only gives rise to problems of obesity and excess weight. It is also linked to the appearance of diabetes, dyslipidaemia, hypertension, strokes, arteriosclerosis, ictus, etc. All of these pathologies increase the risk of premature death and can even cause death. In this sense, certain natural oils show a certain efficacy against this type of pathologies, but their power is limited. In contrast, the molecules of the invention have an important effect against the development of this type of pathologies. To be able to study the effects of the compounds of the invention for the prevention and treatment of metabolic and cardiovascular pathologies, hypertensive rats were used (SHR strain, spontaneously hypertensive rats). These rats present obesity, high blood pressure, dyslipidaemia (hypercholesterolemia and hypertriglyceridemia), diabetes, metabolic syndrome and other related health problems. […] [table]

Another assay can be described thus: body weight of SHR rats. Type of assay: in vivo. As to conditions: 14 days, 600 mg/kg, 12 h, p.o., basal weight 342 grams. An excerpt: Metabolic and cardiovascular pathologies are closely related. The overfeeding which characterises our society not only gives rise to problems of obesity and excess weight. It is also linked to the appearance of diabetes, dyslipidaemia, hypertension, strokes, arteriosclerosis, ictus, etc. All of these pathologies increase the risk of premature death and can even cause death. In this sense, certain natural oils show a certain efficacy against this type of pathologies, but their power is limited. In contrast, the molecules of the invention have an important effect against the development of this type of pathologies. To be able to study the effects of the compounds of the invention for the prevention and treatment of metabolic and cardiovascular pathologies, hypertensive rats were used (SHR strain, spontaneously hypertensive rats). These rats present obesity, high blood pressure, dyslipidaemia (hypercholesterolemia and hypertriglyceridemia), diabetes, metabolic syndrome and other related health problems.

Assay [1] deals with Drosophila melanogaster flies with human Alzheimer's genes (F1). In words: geotaxis (climbing) test in Drosophila melanogaster with Alzheimer's disease. It is filed as in vivo. The following applies: 100 μM in the food; for Geotaxis: age at which the animals showed a geotaxis of nil: no fly passes the line. The text has this:
To investigate the effect of TGMs on the cognitive parameters and aging, another model of Alzheimer's disease in Drosophila melanogaster flies with genetic alterations corresponding to human Alzheimer's was used. The flies used were the first generation (F1) from the crossing of UAS-Aβ human-Tau 2N4R (stock 33771) flies with elav-GAL4^c155 (stock 8760) flies. This model which over-expresses the two proteins typical of Alzheimer's disease is complementary to the model described above and very convenient, as these animals have a life of approximately 1 month and it is possible to add the compounds to the food of the larvae to see the preventative effect thereof throughout their entire life. Also, it allows the effect on aging to be seen and on the life expectancy of these animals (survival over time).
In this sense, the flies with human Alzheimer's (F1) present a greater cognitive decline in comparison to the “Oregon” fly strain, which are the healthy controls. To evaluate the effect of the hydroxy-triglycerides of the invention, each one of the TGMs (100 μM) was added to the food consumed by these animals. It was possible to observe a positive effect of same in the geotaxis test of climbing (FIG. 7B and Table 11). In this test, the behavioural motor activity was investigated in 25 flies treated with vehicle or one of the TGMs. In this study, the flies were introduced in a glass cylinder with an opening closed with a sponge so air could enter. The flies were taken to the ground (bottom) of the pipe by giving it a sharp blow on a table and their behaviour was timed during 20 seconds. Once this time was over, the number of flies which had passed (crossed) a mark at 15 cm from the bottom was counted (geotaxis test). Usually, more than 90% of healthy young flies passed the line within 20 seconds. However, with aging or with Alzheimer's disease, the behavioural motor activity (percentage of flies which crossed the line) declined, compared to normal flies. In this context, the treatments with the hydroxy-triglycerides of the present invention avoided this cognitive decline associated to Alzheimer's, making the cognitive capacity of the diseased flies similar to that of the healthy flies. […] This positive effect on the cognitive parameters in flies was also shown by other TGMs (Table 11). In fact, in the control group with Alzheimer, no fly crossed the line as of 23 days of age. In this sense, the different hydroxy-triglycerides induced marked increases in the geotaxis test values, with increases in the cognitive values which reached up to 36 days, 50% more in the life of the flies with Alzheimer's (Table 11).

Assay [2] addresses T1, Glycogen Branching Enzyme 1 (GBE1) wild type (Homo sapiens, UniProt Q04446).
T1 sequence (Q04446 1-702): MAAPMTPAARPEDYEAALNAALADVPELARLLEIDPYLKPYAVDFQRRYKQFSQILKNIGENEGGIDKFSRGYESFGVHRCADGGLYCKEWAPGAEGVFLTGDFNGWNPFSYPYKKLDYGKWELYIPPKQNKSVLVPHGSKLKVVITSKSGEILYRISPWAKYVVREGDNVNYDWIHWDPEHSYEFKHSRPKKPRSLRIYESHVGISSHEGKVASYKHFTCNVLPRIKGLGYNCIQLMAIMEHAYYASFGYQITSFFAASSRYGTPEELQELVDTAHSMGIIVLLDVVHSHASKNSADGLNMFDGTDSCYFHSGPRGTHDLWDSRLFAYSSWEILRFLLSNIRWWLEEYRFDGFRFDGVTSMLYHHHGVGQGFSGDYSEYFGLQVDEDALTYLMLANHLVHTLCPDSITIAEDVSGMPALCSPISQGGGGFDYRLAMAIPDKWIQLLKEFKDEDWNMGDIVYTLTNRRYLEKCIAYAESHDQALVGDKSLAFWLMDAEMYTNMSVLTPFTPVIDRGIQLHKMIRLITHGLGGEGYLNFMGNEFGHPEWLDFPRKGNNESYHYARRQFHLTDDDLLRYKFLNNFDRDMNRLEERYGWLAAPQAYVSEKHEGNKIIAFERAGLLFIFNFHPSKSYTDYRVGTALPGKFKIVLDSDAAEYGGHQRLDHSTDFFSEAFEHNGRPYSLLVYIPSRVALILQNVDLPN
In words: activity of purified enzyme GBE1 in the presence of PC membranes. The following applies: PC membranes with TGM 20 mol %; non-mutated enzyme = 100% (0.76 nmol/min · ng protein). Type of assay: biochemical. An excerpt: It has been possible to observe that the molecules of the present invention are capable of regulating the activity of the Glycogen Branching Enzyme 1 (GBE1) and its joining to membranes (Table 9). Alterations in this enzyme give rise to a neurodegenerative process known as APBD (Kakhlon et al., 2013). It has been described that a modification of tyrosine in position 329 of this enzyme (Y329S) causes a reduction in the activity of GBE1. This gives rise to a lower branching of glycogen, which precipitates forming […] which interfere with cell activity (Kakhlon et al., 2013). This gives rise to problems in the function of certain organs, to motor problems and, in some cases, to cognitive decline. We have been able to verify that the hydroxy-triglycerides of the present invention are capable of regulating the joining of native GBE1 (wild type, wt) and with the variant Y329S to membranes and to increase the activity of the form Y329S, which is very low in normal conditions (Table 9). For this reason, the molecules of the present invention are effective for the prevention and treatment of the polyglucosan bodies disease, APBD.

The values below come from US10047036B2, “Method for the synthesis of hydroxy-triglycerides and uses thereof for the prevention and treatment of diseases” (UNIVERSITAT DE LES ILLES BALEARS, priority 2014, dated 2018).

Turning to `CCC=CCC=CCC=CCC=CCC=CCCC(O)C(=O)OCC(COC(=O)C(O)CCC=CCC=CCC=CCC=CCC=CCC)OC(=O)C(O)CCC=CCC=CCC=CCC=CCC=CCC` (stereo not drawn) [TGM5, 1,2,3-tri(2′-hydroxy-eicosa-5′,8′,11′,14′,17′-pentaenoyl)glycerol], the “TG, levels of triglycerides in plasma” value in the assay with triglycerides in plasma turned out to be 56.2 ± 3 mg/dL. Also, the “ΔWeight, change in weight” value in “body weight of SHR rats” was -9 ± 3 g. Moreover, in assay [1], the Geotaxis: age at which the animals showed a geotaxis of nil worked out at 26 days. Moreover, the “Activity GBE1wt” value in assay [2] is 24 ± 2%.
Taken in the same sequence, the figures for `CCCCCC(O)C(=O)OCC(COC(=O)C(O)CCCCC)OC(=O)C(O)CCCCC` (stereo not drawn) [TGM0, 1,2,3-tri(2′-hydroxyheptanoyl)glycerol] were 69.7 ± 7 mg/dL, -4 ± 2 g, 25 days and 95 ± 12%.
Consider `CCC=CCC=CCC=CCCCCCCC(O)C(=O)OCC(COC(=O)C(O)CCCCCCC=CCC=CCC=CCC)OC(=O)C(O)CCCCCCC=CCC=CCC=CCC` (stereo not drawn) [TGM3A, 1,2,3-tri(2′-hydroxy-octadec-9′,12′,15′-trienoyl)glycerol], for which the “TG, levels of triglycerides in plasma” value with triglycerides in plasma is 54.8 ± 4 mg/dL. The “ΔWeight, change in weight” value in the assay “body weight of SHR rats” is -14 ± 4 g. Moreover, in assay [1], the Geotaxis: age at which the animals showed a geotaxis of nil was 36 days. In assay [2], the “Activity GBE1wt” value was 88 ± 2%.
As to `CCCCCCCCC=CCCCCCCC(O)C(=O)OCC(COC(=O)C(O)CCCCCCC=CCCCCCCCC)OC(=O)C(O)CCCCCCC=CCCCCCCCC` (stereo not drawn) [TGM1, 1,2,3-tri(2′-hydroxy-octadec-9′-enoyl)glycerol], the “TG, levels of triglycerides in plasma” value in the assay on triglycerides in plasma was 51.6 ± 4 mg/dL. In addition, the “ΔWeight, change in weight” value in “body weight of SHR rats” was -22 ± 5 g. Moreover, in assay [1], the Geotaxis: age at which the animals showed a geotaxis of nil came out at 32 days. For the same molecule, the “Activity GBE1wt” value in assay [2] came out at 89 ± 10%.
`CCC=CCC=CCC=CCC=CCC=CCC=CCC(O)C(=O)OCC(COC(=O)C(O)CC=CCC=CCC=CCC=CCC=CCC=CCC)OC(=O)C(O)CC=CCC=CCC=CCC=CCC=CCC=CCC` (stereo not drawn) [TGM6, 1,2,3-tri(2′-hydroxy-docosa-4′,7′,10′,13′,16′,19′-hexanoyl)glycerol]: the “TG, levels of triglycerides in plasma” value in the assay on triglycerides in plasma stood at 49.4 ± 4 mg/dL. The “ΔWeight, change in weight” value in the assay “body weight of SHR rats” was -19 ± 4 g. The “cognitive parameters in the climbing test (FIG. 7B)” value in assay [1] (compared with normal flies) is on record as “practically indistinguishable from that observed in normal flies”. The same molecule yielded a Geotaxis: age at which the animals showed a geotaxis of nil in assay [1] of 28 days. The “Activity GBE1wt” value in assay [2] is reported as 33 ± 3%.
In the case of `CCCCCC=CCC=CCC=CCCCC(O)C(=O)OCC(COC(=O)C(O)CCCC=CCC=CCC=CCCCCC)OC(=O)C(O)CCCC=CCC=CCC=CCCCCC` (stereo not drawn) [TGM3G, 1,2,3-tri(2′-hydroxy-octadec-6′,9′,12′-trienoyl)glycerol], the “TG, levels of triglycerides in plasma” value in the assay on triglycerides in plasma stood at 64.1 ± 5 mg/dL. For the same molecule, in the assay “body weight of SHR rats”, the “ΔWeight, change in weight” value is -12 ± 3 g. The molecule also registered a Geotaxis: age at which the animals showed a geotaxis of nil in assay [1] of 29 days. Also, in assay [2], the “Activity GBE1wt” value was 69 ± 7%.
For `CCCCCC=CCC=CCCCCCCC(O)C(=O)OCC(COC(=O)C(O)CCCCCCC=CCC=CCCCCC)OC(=O)C(O)CCCCCCC=CCC=CCCCCC` (stereo not drawn) [TGM2, 1,2,3-tri(2′-hydroxy-octadec-9′,12′-dienoyl)glycerol], the “TG, levels of triglycerides in plasma” value in the assay with triglycerides in plasma is 61.7 ± 3 mg/dL. Moreover, in “body weight of SHR rats”, the “ΔWeight, change in weight” value is -32 ± 6 g. This molecule also registered a Geotaxis: age at which the animals showed a geotaxis of nil in assay [1] of 29 days. In addition, the “Activity GBE1wt” value in assay [2] is 72 ± 5%.
For `CCCCCC=CCC=CCC=CCC=CCCC(O)C(=O)OCC(COC(=O)C(O)CCC=CCC=CCC=CCC=CCCCCC)OC(=O)C(O)CCC=CCC=CCC=CCC=CCCCCC` (stereo not drawn) [TGM4, 1,2,3-tri(2′-hydroxy-eicosa-5′,8′,11′,14′-tetraenoyl)glycerol] the same measures were 69.3 ± 3 mg/dL, -25 ± 5 g, 35 days and 31 ± 4%.
